Tests used:
Assay type in all cases: physicochemical
[1] = Oil-holding capacity with corn oil; settings: for Oil-holding capacity: five grams of corn oil, particle size 53 to 106 μm, powder added until end point
Procedure: Using a particulate composition containing hydrous crystalline ascorbic acid 2-glucoside obtained by the method in Experiment 3-2, the oil-holding capacity of the particulate composition was determined. As a control, “AA2G”, a product name of a commercialized particulate composition containing anhydrous crystalline ascorbic acid 2-glucoside with a purity of at least 98% by weight, commercialized by Hayashibara Biochemical Laboratories, Inc., Okayama, Japan, was used.
The measurements for oil-holding capacity of the particulate compositions were conducted as follows in accordance with the method disclosed in Japanese Patent Kokai No. 31650/84. Five grams of a corn oil (a reagent grade specimen, Lot No.: WKL1215, commercialized by Wako Pure Chemical Industries, Osaka, Japan, was placed in a 50-ml plastic container, to which was gradually added while stirring the particulate composition containing hydrous crystalline ascorbic acid 2-glucoside or the particulate composition containing anhydrous crystalline ascorbic acid 2-glucoside, both of which had been adjusted to give a particle size of 53 to 106 μm similarly as in Experiment 6. Although the resulting mixture retains a free-flowing ability while the additive amount of any of the particulate compositions is relatively low, but it increases its viscosity as the increase of the additive amount and becomes a clump in due course. As the additive amount further increases, the clump increases its hardness and finally it could not keep together and begins to be unstiffen. The moment was regarded as the end point and the oil-holding capacity was determined by the following equation based on the amount of each crystalline particulate composition that had been added until the end point.

[2] = Tabletting property (cracking or chipping of pressed tablets); settings: powder with particle size 53 to 106 μm, 0.4 g, one ton load for 30 sec, 10 tablets observed for cracking or chipping
Description: The tabletting property of a particulate composition containing hydrous crystalline ascorbic acid 2-glucoside of the present invention was investigated by the following method and compared with that of a conventional particulate composition containing anhydrous crystalline ascorbic acid 2-glucoside.
A hydrous crystalline ascorbic acid 2-glucoside powder with an ascorbic acid 2-glucoside purity of 99.2% by weight, obtained by the method in Experiment 3, was sieved to collect a powder with a particle size ranging from 53 to 106 μm. The powder thus obtained was placed in a metallic mold for tabletting (11 mm diameter and 30 mm thickness) in an amount of 0.4 g, and tabletted by loading on the powder one ton for 30 sec using “SSP-10A”, a portable press machine, commercialized by Shimadzu Corp., Kyoto, Japan, followed by taking out the resulting tablets by releasing the load. The procedure was repeated 10 times to prepare 10 tablets in total. As a control, “AA2G”, a trade mark of a commercialized particulate composition containing anhydrous crystalline ascorbic acid 2-glucoside with a purity of at least 98%, commercialized by Hayashibara Biochemical Laboratories, Inc., Okayama, Japan, was used to prepare a powder with a particle size ranging from 53 to 106 μm, which was then prepared into 10 tablets by the same method as above. […]

[3] = Tablet hardness measured on a rheometer; settings: tablet of Experiment 6, RHEOMETER CR-500DX
Description: During the preparation of tablets, the particulate composition was frequently observed, as a causative of cracking, to be adhered to a cylinder (punch) of the portable press machine at the stage of releasing the load and it induced cracking at the stage of taking out from the metallic mold of the press machine.

[4] = listed as particulate composition containing anhydrous crystalline ascorbic acid 2-glucosi
[5] = listed as particulate composition containing hydrous crystalline ascorbic acid 2-glucoside

Structure (SMILES)	Oil-holding capacity [1]	Oil-holding capacity [1, 4]	Tablet form [2, 4]	Oil-holding capacity [1, 5]	Oil-holding capacity relative to the anhydrous crystalline control ([1]; hydrous versus anhydrous particulate composition)	Tablet form [2, 5]	degree of hardness of tablet [3]
O=C1O[C@H]([C@@H](O)CO)C(O)=C1O[C@H]1O[C@H](CO)[C@@H](O)[C@H](O)[C@H]1O [Particulate composition containing anhydrous crystalline asc] [2-O-α-D-glucosyl-L-ascorbic acid]	25.2	25.2	cracking or chipping was observed in 9 out of 10 tablets	–	–	–	–
O=C1O[C@H]([C@@H](O)CO)C(O)=C1O[C@H]1O[C@H](CO)[C@@H](O)[C@H](O)[C@H]1O [Particulate composition containing hydrous crystalline ascor] [2-O-α-D-glucosyl-L-ascorbic acid]	38.3	–	–	38.3	about 1.5 folds	neither cracking nor chipping was observed in all the 10 tablets	about 90 N

Source: patent publication US9206215B2, “Hydrous crystalline 2-O-α-D-glucosyl-L-ascorbic acid, particulate composition comprising the same, their preparation and uses” (HAYASHIBARA CO., LTD., priority 2010, dated 2015)
